Measured values from US10913932B2, “Maturation of mammalian hepatocytes” (Takara Bio Europe AB, priority 2015, dated 2021).

Key:
OATP1B1 = OATP1B1 mRNA expression levels; type: cell-based, human; settings: protocol B plus compound compared to protocol A; day 36; protocol B alone also increases; FIG. 2 F
Protocol: Following the basic protocol B, ChiPSC4-derived hepatocytes cultured on a Collagen I-Fibronectin-based coating were treated with 0.5 μM 10Z-Heptadecenoic acid, 0.5 μM Arachidonic acid, 0.5 μM Calcitriol, 5 μM CGP 52608, 0.2 μM Cholecalciferol, 5 μM PP1, 0.5 μM D-erythro-Sphingosine, 0.2 μM 13 cis-RA, 0.5 μM L-erythro MAPP, 0.5 μM PAF C16, 0.5 μM C16 Ceramide, or different combinations of these compounds from day 21 of the differentiation protocol and onwards (FIG. 2).

[1] = tested on: ChiPSC4-derived hepatocytes; experiment: CYP activity assay, Example 4, basic protocol B; settings: single compounds 0.2-5 μM or combinations, from day 21 onwards, Collagen I-Fibronectin-based coating, day 29, FIG. 2 A-D
Protocol: (§1) On day 29 and 36 of the differentiation protocol, the cell cultures are subjected to a CYP activity assay according to the following protocol: Cells are washed twice with warm Williams's medium E w/o phenol red (+0.1% PEST). Then CYP activity assay, consisting of warm Williams medium E w/o phenol red (+0.1% PEST), 2 mM L-Glutamine, 25 mM HEPES, 10 μM Phenacetin (model substrate for CYP1A), 10 μM Bupropion (model substrate for 2B6), 10 μM Diclofenac (model substrate for CYP2C9), 10 μM Bufuralol (model substrate for 2D6), and 5 μM Midazolam (model substrate for CYP3A), is added to the cells (e.g. 110 μl/cm^2) and incubated for 16 hr at 37° C. Then 100 μl of the supernatant is transferred into a 96 well plate which is sealed with a tight seal tape and stored at −80° C. until LC/MS-analysis of metabolite formation: Acetaminophen (Paracetamol) for CYP1A, OH-Bupropion for CYP2B6, OH-Diclofenac for CYP2C9, OH-Bufuralol for CYP2D6, and OH-Midazolam for CYP3A. […]
On day 29 of the differentiation protocol, the cell cultures are subjected to a CYP activity assay according to the protocol described in Example 3. In some experiments, 50 μM Mephenytoin (model substrate for 2C19) was included additionally to the substrates mentioned above and then the formation of the metabolite OH-Mephenytoin was measured by LC/MS in order to determine CYP2C19 activity.

[2] = tested on: hiPS cell-derived hepatocytes; experiment: CYP activity assay (LC/MS metabolite formation), Example 3, basic protocol A; settings: single compounds, 0.2-50 μM, from day 21 onwards, Fibronectin-based coating, day 29 and 36, FIG. 1
Protocol: Following the basic protocol A, hiPS cell derived hepatocytes cultured on a Fibronectin-based coating were treated with 0.5 or 5 μM 10Z-Heptadecenoic acid, 0.5 or 5 μM Arachidonic acid, 5 μM Calcifediol, 5 μM Calcitriol, 0.2 or 0.5 μM Cholecalciferol, 5 or 50 μM CGP 52608, 0.5 or 5 μM Docosahexaenoic acid, 0.5, 1.25, 2.5, 5, or 10 μM PP1, 0.5 or 5 μM PP2, 0.5 or 5 μM D-erythro-Sphingosine, or 0.5 or 5 μM Tetradecanoic acid from day 21 of the differentiation protocol and onwards (FIG. 1).
as §1, with “C.” for “C. Then 100 μl of the supernatant is transferred into a 96 well plate which is sealed with a tight seal tape and stored at −80° C. until LC/MS-analysis of metabolite formation: Acetaminophen (Paracetamol) for CYP1A, OH-Bupropion for CYP2B6, OH-Diclofenac for CYP2C9, OH-Bufuralol for CYP2D6, and OH-Midazolam for CYP3A.”

SMILES	OATP1B1 mRNA levels (OATP1B1)	CYP activity levels [1]	CYP activity levels [2]
CCCCCC/C=C\CCCCCCCCC(=O)O [10Z-Heptadecenoic acid, 10Z-heptadecenoic acid]	increase		
CC1=C(/C=C/C(C)=C/C=C/C(C)=C\C(=O)O)C(C)(C)CCC1 [13 cis-RA, 13-cis-retinoic acid]		increase CYP activity levels	
C=C1CC[C@H](O)C/C1=C/C=C1\CCC[C@]2(C)[C@@H]([C@H](C)CCCC(C)C)CC[C@@H]12 [Cholecalciferol, cholecalciferol]		increase CYP activity levels	increase CYP activity levels
CC(C)(C)n1nc(-c2ccc(Cl)cc2)c2c(N)ncnc21 [PP2, 3-(4-chlorophenyl) 1-(1,1-dimethylethyl)-1H-pyrazolo[3,4-d]pyrimidin-4-amine]			increase CYP activity levels
